Test results taken from PubChem BioAssay AID504778 (National Center for Advancing Translational Sciences (NCATS), 2011).

System: Caco-2 monolayer, B->A permeability, LC-MS/MS
Experiment: Enhancers of SMN2 Splice Variant Expression: Caco-2 Permeability Profiling
Conditions: active compounds read high
From the text: Spinal muscular atrophy (SMA) is caused by insufficient levels of the survival motor neuron protein SMN. The SMN locus on chromosome 5q13 contains two inverted copies of SMN called SMN1 and SMN2 which are 99% identical at the amino acid level. SMN1 is a fully functional protein and SMN2 skips exon 7 90% of the time. Skipping of exon 7 produces non-functional protein product. 10% of the SMN2 protein includes exon 7 and is fully functional. In the SMA disease state, mutations in the SMN1 locus are the cause of the disease state. Because only 10% of SMN2 is of the fully functional form, it is not sufficient to overcome the deficiency produced by the loss of the SMN1 product. A therapy that either increase the amount of SMN2 product made or to increase the inclusion of exon 7 has been proposed for the treatment of SMA. After screening and medicinal chemistry efforts a probe was identified and is further characterized in this in vitro ADME assay. This Caco-2 permeability assay predicts the in vivo absorption of the lead across the intestinal lining by using a Caco-2 cell line and measuring the lead's rate of transport […]. […] NIH Chemical Genomics Center [NCGC] NIH Molecular Libraries Probe Production centers Network [MLPCN] […]
1. […] The T0, LY and T90, LY plates are read by FlexStation 3 at excitation of 485 nm and emission of 535 nm to determine LY permeability. […]

Structure (SMILES): O=C(O)C1CCN(c2nc(-c3ccc(Br)cc3)cs2)CC1
- Papp B->A: 12 10^-6 cm/s
